Where two headings read alike, the source gives them in different places. Marks after values point to notes of the source that are not given here.
Legend:
[1] = test system: S. tiphy; format: cell-based
[2] = test system: Salmonella enterica; assay: MIC, liquid culture dilution (single chelates and cross-dilution combinations); format: cell-based, Salmonella enterica subp. Enterica serovar enteritidis
[3] = test system: Staphylococcus aureus; assay: MIC, liquid culture dilution; format: cell-based
[4] = test system: Clostridium perfringens; format: cell-based
[5] = test system: LACTIC ACID PRODUCERS; assay: MIC, liquid culture dilution; format: cell-based
[6] = test system: Escherichia coli; assay: MIC, liquid culture dilution (single chelates and cross-dilution combinations); format: cell-based
[7] = test system: Micrococcus luteus; assay: MIC, liquid culture dilution; format: cell-based
[8] = test system: Streptococcus agalactiae; assay: MIC, liquid culture dilution; format: cell-based
[9] = test system: Saccharomyces cerevisiae; assay: MIC, liquid culture dilution; format: cell-based
[10] = test system: Salmonella; assay: Minimal lethal concentration (CID); format: cell-based
Experimental: (§1) It is the concentration of the active ingredient that causes the complete death of the microbes. Under sterile conditions within a laminar box, a dilution series was prepared from the liquid culture mediums that were incubated for 24 hours, then from the dilution series 100 μl each was placed onto agar dishes and spread with a sterile glass rod. The incubation period is 24 hours under conditions favorable for the growth of the microbe, then the number of colonies on the agar dishes are counted.
(§2) In the case where no colonies are visible on the culture medium after the incubation, it indicates the microbe killing effect (CID) of the trace element chelate. The number of countable colonies grown on the agar dishes gives the actual MIC value of the given trace element chelate.

[11] = test system: Lactococcus; assay: Minimal lethal concentration (CID); format: cell-based
Experimental: as §1, §2

[12] = test system: Brachyspira hyodysenteriae; assay: MIC (single chelates and combinations)
[13] = test system: LSE; assay: Minimal lethal concentration (CID); format: cell-based, Saccharomyces cerevisiae
Experimental: as §1, §2

[14] = test system: Arcanobacterium piogenes; assay: MIC; format: cell-based
[15] = test system: Clostridium; assay: Minimal lethal concentration (CID); format: cell-based
Experimental: as §1, §2

[16] = test system: E. coli
Description: The experimental animals had E. coli infection. The control group received the standard antibiotic supplement in the feed to control the E. coli infection.

[17] = test system: Clostridium perfringens; settings: treatment group III
[18] = test system: Clostridium perfringens
[19] = test system: Lawsonia intracellularis
Experimental: Experimental feeding was performed with growing pigs, under pilot environmental conditions with the animal paired methods on a stock infected with the pathogen Lawsonia intracellularis. The control group received the usual antibiotic supplement mixed into the feed.

[20] = vs antibiotic-supplemented control
[21] = 1 kg/t in feed, 101 days of fattening

| Compound | Minimal inhibitory concentration (MIC) [2] [ppm] | Minimal inhibitory concentration (MIC) [3] [ppm] | Minimal inhibitory concentration (MIC) [4] [ppm] | Minimal inhibitory concentration (MIC) [5] [ppm] | Minimal inhibitory concentration (MIC) [6] [ppm] | Minimal inhibitory concentration (MIC) [7] [ppm] | Minimal inhibitory concentration (MIC) [8] [ppm] | Minimal inhibitory concentration (MIC) [9] [ppm] | Minimal inhibitory concentration (MIC) [12] [ppm] | Minimal inhibitory concentration (MIC) [14] [ppm] | further results |
| --- | --- | --- | --- | --- | --- | --- | --- | --- | --- | --- | --- |
| NCC(=O)O.O=S(=O)([O-])[O-].[Zn+2] [Zinc mono-glycinate, zinc mono-glycinate chelate] | 100 | 40 | 210 | 800 | 100 | 60 | 80 | 800 | >4000 | – | CID concentration [1]: 3000 ppm; Minimal inhibitory concentration (MIC) ([3]; listed as Zn mono-glycinate): 20 ppm; Minimal inhibitory concentration (MIC) ([8]; listed as Zn mono-glycinate): 40 ppm; CID concentration ([10]; Salmonella): 3000 ppm; CID value relative to MIC value ([10]; Salmonella strains): 30 fold; CID concentration [11]: 800 ppm; CID concentration [13]: 800 ppm |
| [NH2][Zn]([NH2])([O]C(=O)C(O)CC(=O)O)[O]C(=O)C(O)CC(=O)O (stereo not shown) [Zn diammine bis-malate, Zn diammonium malate] | 120 | 80 | 340 | 500 | 80 | – | 20 | 500 | 2315 | 21 | – |
| NCC(=O)[O-].NCC(=O)[O-].O.[Cu+2] [Copper (H2O) bis-glycinate] | 400 | 5.3 | 100 | 800 | 300 | 60 | 171 | 800 | 96 | 32 | – |
| copper mono-glycinate chelate | 400 | – | 50 | 800 | 400 | 200 | – | 800 | 90 | 92 | CID concentration [11]: 800 ppm; CID concentration ([15]; Clostridium): 200 ppm; CID value relative to MIC value ([15]; Clostridium strains): twice as much; CID concentration [13]: 800 ppm |
| Manganese mono-glycinate | 300 | – | – | 1000 | 300 | 100 | – | 1000 | – | – | – |
| zinc ammonium maleinate | – | – | – | – | – | – | – | – | – | – | Daily weight gain ([16]; 38 days): 391 g; Feed utilization ([16]; 38 days): 2.04 kg/kg; Body weight at the end of the experiment ([16]; 38 days, initial weight 9.19 kg): 24.05 kg; Average daily weight gain higher than control group [16, 20]: 45%; Feed utilization better than control group [16, 20]: 13% |
| [NH3+][Cu]1([NH3+])[O]C(=O)CN(CC(=O)O)CCN(CC(=O)O)CC(=O)[O]1 [Cu diamino ethylenediamine tetraacetic acid] | – | – | 20 | – | – | – | – | – | 80 | – | Egg yield increase compared to the negative control group [17]: 6.7%; Egg yield increase compared to the positive control group [17]: 22.4%; Total eggs ([17]; 36 hens, C. perfringens inoculated): 1868 pc.; No. of eggs/hen ([17]; C. perfringens inoculated): 51.80; Total egg weight ([17]; C. perfringens inoculated): 125.70 kg; Weight of egg ([17]; g/pc.): 67.2 g |
| NCC(=O)[O-].[Ag+] [Ag glycinate] | – | – | – | – | – | – | – | – | – | 184 | – |
| NCC(=O)[O][Cu]([NH3+])([NH3+])[O]C(=O)CN [copper diammonium bis-glycinate] | – | – | – | – | – | – | – | – | – | – | Relative feed utilization ([18]; 1.0 kg/t in feed, 42 days): 1.89 kg/kg; Total feed use ([18]; 1.0 kg/t in feed, 42 days): 59 880 kg; Total living weight ([18]; 1.0 kg/t in feed, 42 days): 32 395 kg; Total weight gain ([18]; 1.0 kg/t in feed, 42 days): 31 681 kg; Chicken shipped ([18]; 1.0 kg/t in feed, 42 days, 17 100 chicks at start): 16 238; Mean slaughter weight ([18]; 1.0 kg/t in feed, 42 days, difference significant at P ≤ 0.001): 1995*** g; Faeces, signs of diarrhea ([18]; experimental group, observation): no signs of a change indicating diarrhea was visible; Adverse side effects ([18]; feeding the experimental composition, 1.0 kg/t): No adverse side effects were observed; Chicken shipped, difference to control group ([18]; vs unsupplemented control): 4; Relative feed utilization, difference to control group (less feed per unit live weight gain) ([18]; vs unsupplemented control): 3.6%; Total feed use, difference to control group ([18]; vs unsupplemented control): 620 kg; Added weight [19, 21]: 76.15 kg; Average slaughter weight [19, 21]: 107.01 kg; Feed utilization [19, 21]: 3.10 kg/kg; Added weight higher than control [19, 20]: 6.2%; Feed utilization better than control [19, 20]: 6.8%; Slaughter weight higher than control [19, 20]: 1.6% |
| Zn(Glycine)2 [Zinc (H2O) bis-glycinate] | 220 | 4 | 180 | 800 | 120 | 60 | 29 | 500 | >4000 | – | – |
| Iron mono-glycinate | 450 | – | – | 1000 | 350 | 100 | – | 1000 | – | – | – |
